Usually inhibition stands for the share of the control response that was lost under treatment.

Assay [1] deals with MDA-MB-231. As to the kind of experiment: Anti-migration activity against human MDA-MB-231 cells assessed as inhibition of cell migration at 10 uM incubated for 18 hrs by wound healing assay. The assay is classed as functional.
Assay [2] relates to MDA-MB-231. The assay can be described thus: Anti-migration activity against human MDA-MB-231 cells assessed as inhibition of cell migration at 25 uM incubated for 18 hrs by wound healing assay. The assay is classed as functional.

Take `CO[C@@H]1[C@@H](O)[C@@H](OC)[C@H](Oc2cccc3c2C(=O)N([C@@]2(C(=O)N[C@H](C(=O)N[C@H](C(=O)O)c4ccc(O)cc4)[C@H](O)CC(N)=O)C[C@@H]2C)[C@H]3CCCCCCCC(=O)O)O[C@@H]1C`: in assay [1], the inhibition at 10 µM was 42%. For the same molecule, in assay [2], the inhibition at 25 µM stood at 100%.

The values above are taken from ChEMBL document CHEMBL5137132, “Ulleungdolin, a Polyketide-Peptide Hybrid Bearing a 2,4-Di-O-methyl-β-d-antiarose from Streptomyces sp. 13F051 Co-cultured with Leohumicola minima 15S071” (2022).
